Experimental data reported in PubChem BioAssay AID1963869 (Molecular Pharmacology Branch, DTP, NCI, 2024).

System: KRAS patient-derived spheroids with HUVEC/MSC, viability
Assay: Anticancer human tumor 323965-272-R-J2-PDC patient-derived pancreatic carcinoma cell line growth inhibition [KRAS2]
Settings: for IC50: curve of first compound; for viability, T/C: stronger effect = lower value
Description: Multicellular complex tumor spheroid response to RAS pathway inhibitors in combination with a targeted agents in patient-derived cell lines with oncogenic KRAS variants from multiple cancer types
A high-throughput screen of multi-cell type tumor spheroids was designed to identify active combinations of targeted small molecules and KRAS pathway inhibitors. Complex spheroids include a stromal component modeled by human endothelial cells (HUVEC) and fibroblasts modeled by human mesenchymal stem cells (MSCs). The concentration ranges selected for each drug and investigational agent were based upon clinically achievable concentrations if the clinical Cmax of the agent was known.
Compounds. The drugs and investigational agents: BI-3406 (NSC825286), BAY-293 (NSC824723), batoprotafib (TNO155; NSC825523), sotorasib (AMG 510; NSC818433), MRTX1257 (NSC819558), elimusertib (BAY 1895344; NSC800525), molibresib (GSK525762; NSC774829), temuterkib (LY3214996; NSC803410), venetoclax (NSC766270), alisertib (NSC759677), olaparib (NSC753686), talazoparib (NSC767125), erdafitinib (NSC781556), ipatasertib (NSC767898), cabozantinib (NSC761068), nintedanib (NSC756659), abemaciclib (NSC768073), docetaxel (NSC628503), trametinib (NSC758246), and sapanisertib (NSC764658) were obtained from the National Cancer Institute (NCI) Developmental Therapeutics Program Chemical Repository. The FDA-approved anticancer drug set is available from the Developmental Therapeutics Program. […] The stock solutions were prepared in dimethyl sulfoxide (DMSO, Sigma-Aldrich, St. Louis, MO, cat. D2650) at 800-fold the tested concentration and stored at -70 degrees C prior to their use. All drugs and investigational agents were tested over a range starting from a high concentration at or near the clinical Cmax and decreasing in half-log increments. If the clinical Cmax for an agent had not been determined, the highest concentration tested was 10 microM.
Cell Culture. All cells were maintained in an incubator at 37 degrees C and 5% CO2 with 95% humidity. The PDC lines were cultured according to standard operating procedures established by the NCI PDMR (https://pdmr.cancer.gov/sops/default.htm). Briefly, all PDCs were thawed and cultured in Matrigel-coated flasks prepared with a working solution of 1X Ham's F-12 nutrient mix, without supplementation (Invitrogen, Waltham, MA, cat. 11765054), 100 U/mL penicillin-streptomycin (Invitrogen, cat. 15140122), and 2.5% Matrigel (Corning Inc., Corning, NY, cat. 354248) for the first three passages. All PDCs were cultured in complete DMEM/F-12 media containing advanced DMEM/F-12 (Invitrogen, cat. 12634028), 4.9% defined fetal bovine serum, heat inactivated (HyClone Laboratories Inc., Logan, UT, cat. SH30070.03HI), 389 ng/mL hydrocortisone (Sigma-Aldrich, cat. H4001), 9.7 ng/mL human EGF recombinant protein (Invitrogen, cat. PHG0313), 23.4 microg/mL adenine (Sigma-Aldrich, cat. A2786), 97.3 U/mL penicillin-streptomycin (Invitrogen, cat. 15140122), 1.9 mM L-glutamine (Invitrogen, cat. 25030081), and 9.7 microM Y-27632 dihydrochloride (Tocris Bioscience, Bristol, United Kingdom, cat. 1254). The PDCs were cultured in complete DMEM/F12 media without 9.7 microM Y-27632 dihydrochloride for at least two passages prior to the screen. The established cell line HOP-62 was cultured in RPMI 1640 medium, HEPES (Invitrogen, cat. 22400105) with 10% defined fetal bovine serum (HyClone Laboratories Inc., cat. SH30070.03) and 2 mM L-glutamine (Invitrogen, cat. 25030081). The pooled donor HUVEC were cultured in endothelial cell growth medium 2 (PromoCell, Heidelberg, Germany, cat. C-22011) and the hMSC were cultured in mesenchymal stem cell growth medium 2 (PromoCell, cat. C-28009). For all experiments, HUVEC and hMSC were used at passages </=5, while the malignant cell lines were used at passages </=15. […]

[1] = second compound 0.1 µM, first compound 0.0316 µM
[2] = second compound 0.1 µM, first compound 0.1 µM
[3] = second compound 0.316 µM, first compound 0.0316 µM
[4] = second compound 0.316 µM, first compound 0.1 µM
[5] = second compound 1 µM, first compound 0.0316 µM
[6] = second compound 1 µM, first compound 0.1 µM
[7] = second compound 3.16 µM, first compound 0.0316 µM
[8] = second compound 3.16 µM, first compound 0.1 µM
[9] = second compound 10 µM, first compound 0.0316 µM
[10] = second compound 10 µM, first compound 0.1 µM
[11] = second compound 0.1 µM, first compound 0.316 µM
[12] = second compound 0.1 µM, first compound 1 µM
[13] = second compound 0.1 µM, first compound 3.16 µM
[14] = second compound 0.1 µM, first compound 10 µM
[15] = second compound 0.316 µM, first compound 0.316 µM
[16] = second compound 0.316 µM, first compound 1 µM
[17] = second compound 0.316 µM, first compound 3.16 µM
[18] = second compound 0.316 µM, first compound 10 µM
[19] = second compound 1 µM, first compound 0.316 µM
[20] = second compound 1 µM, first compound 1 µM
[21] = second compound 1 µM, first compound 3.16 µM
[22] = second compound 1 µM, first compound 10 µM
[23] = second compound 3.16 µM, first compound 0.316 µM
[24] = second compound 3.16 µM, first compound 1 µM
[25] = second compound 3.16 µM, first compound 3.16 µM
[26] = second compound 3.16 µM, first compound 10 µM
[27] = second compound 10 µM, first compound 0.316 µM
[28] = second compound 10 µM, first compound 1 µM
[29] = second compound 10 µM, first compound 3.16 µM
[30] = second compound 10 µM, first compound 10 µM
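Further: spheroids exposed to agents for 7 days.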
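Wherever viability, T/C is given: 100% = DMSO vehicle control viability.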

Row | Compound | IC50 (second compound 0.1 µM) [nM] | IC50 (second compound 0.316 µM) [nM] | IC50 (second compound 1 µM) [nM] | IC50 (second compound 3.16 µM) [nM] | IC50 (second compound 10 µM) [nM] | viability, T/C [1] [%] | viability, T/C [2] [%] | viability, T/C [3] [%] | viability, T/C [4] [%] | viability, T/C [5] [%] | viability, T/C [6] [%] | viability, T/C [7] [%] | viability, T/C [8] [%] | viability, T/C [9] [%] | viability, T/C [10] [%] | viability, T/C [11] [%] | viability, T/C [12] [%] | viability, T/C [13] [%] | viability, T/C [14] [%] | viability, T/C [15] [%] | other results
1 | CC(C)n1nc(-c2ccc3oc(N)nc3c2)c2c(N)ncnc21 + C=CC(=O)N1CCN(c2nc(=O)n(-c3c(C)ccnc3C(C)C)c3nc(-c4c(O)cccc4F)c(F)cc23)C(C)C1 | 0.446 | 0.394 | 0.514 | 0.381 | < 0.316 | 15.9 | 12.3 | 14.8 | 12.5 | 15.6 | 13.3 | 13.7 | 12.3 | 12.4 | 12.7 | – | – | – | – | – | viability, T/C (second compound 0.1 µM, first compound 0.000316 µM): 53.7%; viability, T/C (second compound 0.1 µM, first compound 0.001 µM): 41.4%; viability, T/C (second compound 0.1 µM, first compound 0.00316 µM): 28.3%; viability, T/C (second compound 0.1 µM, first compound 0.01 µM): 19.1%; viability, T/C (second compound 0.316 µM, first compound 0.000316 µM): 53.2%; viability, T/C (second compound 0.316 µM, first compound 0.001 µM): 37.8%; viability, T/C (second compound 0.316 µM, first compound 0.00316 µM): 30.5%; viability, T/C (second compound 0.316 µM, first compound 0.01 µM): 22.1%; viability, T/C (second compound 1 µM, first compound 0.000316 µM): 56.9%; viability, T/C (second compound 1 µM, first compound 0.001 µM): 41.1%; viability, T/C (second compound 1 µM, first compound 0.00316 µM): 28.6%; viability, T/C (second compound 1 µM, first compound 0.01 µM): 19.3%; viability, T/C (second compound 3.16 µM, first compound 0.000316 µM): 51.6%; viability, T/C (second compound 3.16 µM, first compound 0.001 µM): 41.9%; viability, T/C (second compound 3.16 µM, first compound 0.00316 µM): 29%; viability, T/C (second compound 3.16 µM, first compound 0.01 µM): 17.5%; viability, T/C (second compound 10 µM, first compound 0.000316 µM): 48.8%; viability, T/C (second compound 10 µM, first compound 0.001 µM): 36.3%; viability, T/C (second compound 10 µM, first compound 0.00316 µM): 24.1%; viability, T/C (second compound 10 µM, first compound 0.01 µM): 19.4%
2 | CC1(C)CCC(CN2CCN(c3ccc(C(=O)NS(=O)(=O)c4ccc(NCC5CCOCC5)c([N+](=O)[O-])c4)c(Oc4cnc5[nH]ccc5c4)c3)CC2)=C(c2ccc(Cl)cc2)C1 + C=CC(=O)N1CCN(c2nc(=O)n(-c3c(C)ccnc3C(C)C)c3nc(-c4c(O)cccc4F)c(F)cc23)C(C)C1 | 1100 | 1320 | 1260 | 1210 | 81.8 | 59.2 | 59.6 | 64.6 | 58.1 | 61.1 | 61.9 | 62 | 62.3 | 61 | 37.6 | 63.3 | 52.7 | 17 | 4.37 | 56.3 | viability, T/C [16]: 60.4%; viability, T/C [17]: 18.8%; viability, T/C [18]: 5.39%; viability, T/C [19]: 60.3%; viability, T/C [20]: 59.5%; viability, T/C [21]: 12%; viability, T/C [22]: 2.97%; viability, T/C [23]: 57.8%; viability, T/C [24]: 56.9%; viability, T/C [25]: 15.8%; viability, T/C [26]: 5.2%; viability, T/C [27]: 43.4%; viability, T/C [28]: 36.3%; viability, T/C [29]: 15.8%; viability, T/C [30]: 2.88%
3 | COc1cc(Nc2ncc3c(n2)-c2ccc(Cl)cc2C(c2c(F)cccc2OC)=NC3)ccc1C(=O)O + C=CC(=O)N1CCN(c2nc(=O)n(-c3c(C)ccnc3C(C)C)c3nc(-c4c(O)cccc4F)c(F)cc23)C(C)C1 | < 31.6 | < 31.6 | < 31.6 | < 31.6 | < 31.6 | 53.5 | 36.2 | 54.1 | 35.3 | 53 | 34 | 46.5 | 27.5 | 27.3 | 18.9 | 26.4 | 31.7 | 43.3 | 46.3 | 28.8 | viability, T/C [16]: 30.1%; viability, T/C [17]: 39.8%; viability, T/C [18]: 51.6%; viability, T/C [19]: 24.2%; viability, T/C [20]: 33.2%; viability, T/C [21]: 47.7%; viability, T/C [22]: 51.5%; viability, T/C [23]: 22.2%; viability, T/C [24]: 34.1%; viability, T/C [25]: 34.7%; viability, T/C [26]: 38.4%; viability, T/C [27]: 20.2%; viability, T/C [28]: 23%; viability, T/C [29]: 23.7%; viability, T/C [30]: 27.1%
4 | COc1cc2nccc(Oc3ccc(NC(=O)C4(C(=O)Nc5ccc(F)cc5)CC4)cc3)c2cc1OC + C=CC(=O)N1CCN(c2nc(=O)n(-c3c(C)ccnc3C(C)C)c3nc(-c4c(O)cccc4F)c(F)cc23)C(C)C1 | > 10000 | > 10000 | > 10000 | > 10000 | 1190 | 54.7 | 56 | 52.8 | 55.1 | 54.5 | 52.3 | 57.1 | 56.9 | 47.6 | 54.2 | 58.8 | 62.6 | 64.2 | 57.8 | 58.1 | viability, T/C [16]: 61.8%; viability, T/C [17]: 62.5%; viability, T/C [18]: 59.8%; viability, T/C [19]: 59.9%; viability, T/C [20]: 61.7%; viability, T/C [21]: 63.8%; viability, T/C [22]: 61.5%; viability, T/C [23]: 56.2%; viability, T/C [24]: 61.2%; viability, T/C [25]: 58.6%; viability, T/C [26]: 55.6%; viability, T/C [27]: 45.5%; viability, T/C [28]: 61.9%; viability, T/C [29]: 29.4%; viability, T/C [30]: 44.2%
